Assay results from patent US9561231B2 (AbbVie Inc., priority 2012, dated 2017).

Assays:
[1] = biological target: T1, first (BD1: amino acids K57-E168) bromodomain of BRD4 (Homo sapiens, UniProt O60885); assay: TR-FRET bromodomain binding assay, BRD4 BD1; conditions: TR-FRET assay protocol (A-G, compound concentration range); Ki calculated from IC50, probe Kd and probe concentration; read-out: TR-FRET Binding Ki: BRD4 (BDI_K57-E168)
T1 construct: His-tagged first (BD1: amino acids K57-E168)
Method in brief: (§1)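 His-tagged BRD4 BD1 (K57-E168) or BD2 ([…]) displacing an Alexa647-labelled BET-inhibitor probe in 20 mM sodium phosphate pH 6.0, 50 mM NaCl, 1 mM EDTA, 0.01% Triton X-100, 1 mM DTT.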

[2] = biological target: T2, second (BD2: amino acids E352-E168) bromodomain of BRD4 (Homo sapiens, UniProt O60885); assay: TR-FRET bromodomain binding assay, BRD4 BD2; conditions: TR-FRET assay protocol (A-G, compound concentration range); Ki calculated from IC50, probe Kd and probe concentration; read-out: TR-FRET Binding Ki: BRD4 (BDII_E352-M457)
T2 construct: protocol
Method in brief: as §1

[3] = tested on: breast cancer cell line MX-1; assay: MX-1 cell line proliferation assay (3-day); assay type: cell-based; conditions: Homo sapiens, MX1; MX-1 cells, 72 h incubation, Cell Titer Glo; read-out: Cellular proliferation: EC50
Method in brief: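 MX-1 cells in RPMI/10% FBS, plated 5000/well overnight, then exposed to compound at final 3 to 0.0001 μM (3-fold series) for 3 days at 37° C. Cell Titer Glo luminescence normalized to DMSO-treated cells; EC50 from sigmoidal curve fit.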

Structure (SMILES)	Ki [1]	Ki [2]	EC50 [3]
C=CC#Cc1ccccc1Oc1ccc(S(=O)(=O)CC)cc1-c1cn(C)c(=O)cc1O [Example 313, 5-{2-[2-(but-3-en-1-yn-1-yl)phenoxy]-5-(ethylsulfonyl)phenyl}-4-hydroxy-1-methylpyridin-2(1H)-one]	754 nM	55.2 nM	1330 nM
CCS(=O)(=O)Nc1ccc(Oc2ccc(F)cc2F)c(-c2cn(C)c(=O)cc2OCc2ccc(CN3CCOCC3)cc2)c1 [Example 315, N-[4-(2,4-difluorophenoxy)-3-(1-methyl-4-{[4-(morpholin-4-ylmethyl)benzyl]oxy}-6-oxo-1,6-dihydropyridin-3-yl)phenyl]ethanesulfonamide]	2.51 nM	0.39 nM	55.6 nM
CCS(=O)(=O)Nc1ccc(Oc2ccc(F)cc2F)c(-c2cn(C)c(=O)cc2OC2COC2)c1 [Example 316, N-{4-(2,4-difluorophenoxy)-3-[1-methyl-4-(oxetan-3-yloxy)-6-oxo-1,6-dihydropyridin-3-yl]phenyl}ethanesulfonamide]	3.9 nM	0.809 nM	24.7 nM
CCS(=O)(=O)c1ccc(Oc2ccc(F)cc2F)c(-c2cn(C)c(=O)cc2OC2COC2)c1 [Example 318, 5-[2-(2,4-difluorophenoxy)-5-(ethylsulfonyl)phenyl]-1-methyl-4-(oxetan-3-yloxy)pyridin-2(1H)-one]	156 nM	15.3 nM	42.7 nM
CCS(=O)(=O)Nc1ccc(Oc2ccc(F)cc2F)c(-c2cn(C)c(=O)cc2OC2CCN(C(=O)OC(C)(C)C)CC2)c1 [Example 319, tert-butyl 4-[(5-{2-(2,4-difluorophenoxy)-5-[(ethylsulfonyl)amino]phenyl}-1-methyl-2-oxo-1,2-dihydropyridin-4-yl)oxy]piperidine-1-carboxylate]	316 nM	104 nM	322 nM
CCS(=O)(=O)Nc1ccc(Oc2ccc(F)cc2F)c(-c2cn(C)c(=O)cc2O[C@H]2CC[C@H](N(C)C)CC2)c1 [Example 321, N-[4-(2,4-difluorophenoxy)-3-(4-{[trans-4-(dimethylamino)cyclohexyl]oxy}-1-methyl-6-oxo-1,6-dihydropyridin-3-yl)phenyl]ethanesulfonamide]	50 nM	9.15 nM	423 nM
CCS(=O)(=O)Nc1ccc(Oc2ccc(F)cc2F)c(-c2cn(C)c(=O)cc2OC2CCNCC2)c1 [Example 322, N-{4-(2,4-difluorophenoxy)-3-[1-methyl-6-oxo-4-(piperidin-4-yloxy)-1,6-dihydropyridin-3-yl]phenyl}ethanesulfonamide]	437 nM	90.9 nM	> 3000 nM
CCS(=O)(=O)Nc1ccc(Oc2ccc(F)cc2F)c(-c2cn(C)c(=O)cc2OCC2CCN(C)C2)c1 (stereo not drawn) [Example 323, N-[4-(2,4-difluorophenoxy)-3-{1-methyl-4-[(1-methylpyrrolidin-3-yl)methoxy]-6-oxo-1,6-dihydropyridin-3-yl]phenyl}ethanesulfonamide]	150 nM	101 nM	1140 nM
CCS(=O)(=O)Nc1ccc(Oc2ccc(F)cc2F)c(-c2cn(C)c(=O)cc2OCC2CCN(C(=O)OC(C)(C)C)CC2)c1 [Example 324, tert-butyl 4-{[(5-{2-(2,4-difluorophenoxy)-5-[(ethylsulfonyl)amino]phenyl}-1-methyl-2-oxo-1,2-dihydropyridin-4-yl)oxy]methyl}piperidine-1-carboxylate]	45 nM	18.1 nM	436 nM
CCS(=O)(=O)Nc1ccc(Oc2ccc(F)cc2F)c(-c2cn(C)c(=O)cc2OC2CC3(C2)CN(C(=O)OC(C)(C)C)C3)c1 [Example 325, tert-butyl 6-[(5-{2-(2,4-difluorophenoxy)-5-[(ethylsulfonyl)amino]phenyl}-1-methyl-2-oxo-1,2-dihydropyridin-4-yl)oxy]-2-azaspiro[3.3]heptane-2-carboxylate]	30.6 nM	21.4 nM	101 nM
CCS(=O)(=O)Nc1ccc(Oc2ccc(F)cc2F)c(-c2cn(C)c(=O)cc2OC2CC3(CNC3)C2)c1 [Example 326, N-{3-[4-(2-azaspiro[3.3]hept-6-yloxy)-1-methyl-6-oxo-1,6-dihydropyridin-3-yl]-4-(2,4-difluorophenoxy)phenyl}ethanesulfonamide]	2.61 nM	17.5 nM	2980 nM
CCN(CC)CC#CCOc1cc(=O)n(C)cc1-c1cc(NS(=O)(=O)CC)ccc1Oc1ccc(F)cc1F [Example 328, N-[3-(4-{[4-(diethylamino)but-2-yn-1-yl]oxy}-1-methyl-6-oxo-1,6-dihydropyridin-3-yl)-4-(2,4-difluorophenoxy)phenyl]ethanesulfonamide]	7.1 nM	14.6 nM	72.7 nM
C/C=C/c1cc(=O)n(C)cc1-c1cc(NS(=O)(=O)CC)ccc1Oc1ccc(F)cc1F [Example 329, N-[4-(2,4-difluorophenoxy)-3-{1-methyl-6-oxo-4-[(1E)-prop-1-en-1-yl]-1,6-dihydropyridin-3-yl]phenyl}ethanesulfonamide]	2.98 nM	1.71 nM	22.7 nM
CCS(=O)(=O)Nc1ccc(Oc2ccc(F)cc2F)c(-c2cn(C)c(=O)cc2-c2ccc(N3CCN(C)CC3)cc2)c1 [Example 330, N-[4-(2,4-difluorophenoxy)-3-{1-methyl-4-[4-(4-methylpiperazin-1-yl)phenyl]-6-oxo-1,6-dihydropyridin-3-yl}phenyl]ethanesulfonamide]	1.96 nM	0.584 nM	49.7 nM
CCS(=O)(=O)Nc1ccc(Oc2ccc(OC3COC3)cc2F)c(-c2cn(C)c(=O)cc2OC2COC2)c1 [Example 336, N-{4-[2-fluoro-4-(oxetan-3-yloxy)phenoxy]-3-[1-methyl-4-(oxetan-3-yloxy)-6-oxo-1,6-dihydropyridin-3-yl]phenyl}ethanesulfonamide]	21.4 nM	1.67 nM	165 nM
CCOc1cc(=O)n(C)cc1-c1cc(S(C)(=O)=O)ccc1NCC1CC1 [Example 340, 5-{2-[(cyclopropylmethyl)amino]-5-(methylsulfonyl)phenyl}-4-ethoxy-1-methylpyridin-2(1H)-one]	225 nM	251 nM	384 nM
CCS(=O)(=O)Nc1ccc(Oc2ccc(F)cc2F)c(-c2cn(C)c(=O)cc2-c2cnn(C)c2)c1 [Example 342, N-{4-(2,4-difluorophenoxy)-3-[1-methyl-4-(1-methyl-1H-pyrazol-4-yl)-6-oxo-1,6-dihydropyridin-3-yl]phenyl}ethanesulfonamide]	2.21 nM	0.609 nM	91.2 nM
CCOc1cc(=O)n(C)cc1-c1cc(NS(=O)(=O)c2cccc3ccccc23)ccc1Oc1ccc(F)cc1F [Example 343, N-[4-(2,4-difluorophenoxy)-3-(4-ethoxy-1-methyl-6-oxo-1,6-dihydropyridin-3-yl)phenyl]naphthalene-1-sulfonamide]	69.8 nM	12.7 nM	504 nM
CCOc1cc(=O)n(C)cc1-c1cc(NS(=O)(=O)c2ccccc2)ccc1Oc1ccc(F)cc1F [Example 344, N-[4-(2,4-difluorophenoxy)-3-(4-ethoxy-1-methyl-6-oxo-1,6-dihydropyridin-3-yl)phenyl]benzenesulfonamide]	23.1 nM	5.07 nM	271 nM
CCS(=O)(=O)Nc1ccc(Oc2ccc(F)cc2F)c(-c2cn(C)c(=O)cc2-c2cnn(CCN3CCOCC3)c2)c1 [Example 345, N-[4-(2,4-difluorophenoxy)-3-(1-methyl-4-{1-[2-(morpholin-4-yl)ethyl]-1H-pyrazol-4-yl}-6-oxo-1,6-dihydropyridin-3-yl)phenyl]ethanesulfonamide]	10.2 nM	5.44 nM	126 nM
CCOc1cc(=O)n(C)cc1-c1cc(NS(=O)(=O)c2ccc(C(C)C)cc2)ccc1Oc1ccc(F)cc1F [Example 347, N-[4-(2,4-difluorophenoxy)-3-(4-ethoxy-1-methyl-6-oxo-1,6-dihydropyridin-3-yl)phenyl]-4-(propan-2-yl)benzenesulfonamide]	169 nM	53.4 nM	1560 nM
CCCS(=O)(=O)Nc1ccc(Oc2ccc(F)cc2F)c(-c2cn(C)c(=O)cc2OCC)c1 [Example 349, N-[4-(2,4-difluorophenoxy)-3-(4-ethoxy-1-methyl-6-oxo-1,6-dihydropyridin-3-yl)phenyl]propane-1-sulfonamide]	43.8 nM	8.71 nM	151 nM
CCOc1cc(=O)n(C)cc1-c1cc(NS(=O)(=O)Cc2ccccc2F)ccc1Oc1ccc(F)cc1F [Example 351, N-[4-(2,4-difluorophenoxy)-3-(4-ethoxy-1-methyl-6-oxo-1,6-dihydropyridin-3-yl)phenyl]-1-(2-fluorophenyl)methanesulfonamide]	25.7 nM	29.8 nM	360 nM
CCS(=O)(=O)Nc1ccc(Oc2ccc(F)cc2F)c(-c2cc(F)c(=O)n(C)c2)c1 [Example 352, N-[4-(2,4-difluorophenoxy)-3-(5-fluoro-1-methyl-6-oxo-1,6-dihydropyridin-3-yl)phenyl]ethanesulfonamide]	26.8 nM	77.9 nM	256 nM
